Results: patent publication US20230272012A1, “PEPTIDES AND METHODS OF USE” (REALTA LIFE SCIENCES, INC., priority 2020, published 2023)
“Also recorded” adds a separate entry of the source. Bridge positions count the residues as written; N and C are the ends. Square brackets hold non-standard residues; d marks the D form. Ends that are not written are not given here. S5 = C=CCCC[C@](C)(N)C(=O)O; Sar = CNCC(=O)O

Legend:
Assay type in all cases: cell-based
[1] = system: purified human Pan T-cells; assay: T-cell exhaustion protocol (Dynabeads re-stimulation); conditions: peptides 2 mg/ml at each stimulation; supernatant ELISA
Method: Purified human pan-T-cells were subject to stimulation with Dynabeads every 48 hours over the period of 8 days with cells also receiving PIC1 peptides (2 mg/ml) at each stimulation. Cells not receiving Dynabeads were run in parallel to assess background levels of Caspase 3/7 signal. At the eighth day, cells were harvested and the levels of Caspase 3/7 determined by ELISA.
Purified human pan-T-cells were subject to stimulation with Dynabeads every 48 hours over the period of 8 days with cells also receiving PIC1 peptides (2 mg/ml) at each stimulation. Cell supernatants were collected at each stimulation and levels of IL-2 and IFN-gamma assayed by ELISA.
T-cell exhaustion is a form of T-cell dysfunction that occurs in cancer. It is defined by poor effector function, reduction in cytokine release (e.g., IL-2, TNF-alpha, IFN-gamma), sustained expression of inhibitory receptors (e.g., PD-1, LAG-3, CD244, CD160) with the progressive loss of effector function due to overstimulation. Exhaustion prevents optimal control of tumor growth. Exhausted T cells are prevalent in the tumor microenvironment (TME) and can lead to T-cell apoptosis. T-cell exhaustion is reversible, and pharmaceutical inhibition of T-cell exhaustion has been considered a promising strategy by many cancer researchers. To ascertain if PIC1 peptides could reverse T-cell exhaustion and increase T cell viability and effector function, a T-cell exhaustion protocol was developed. To induce T-cell exhaustion, purified human Pan T-cells were stimulated with T-Activator CD3/CD28 Dynabeads and cells are washed and re-stimulated every 48 hours. PIC1 peptides were added to the cells after each stimulation with Dynabeads. After three to four stimulations cells were harvested for readouts which consisted of assessing T-cell apoptosis by measuring Caspase 3/7 levels and production of cytokines IL-2 and IFN-gamma which is indicative of T-cell functionality. […] To further evaluate if PIC1 peptides could restore T-cell functionality in cells that have undergone the exhaustion protocol, the inventors next assessed production of cytokines IL-2 and IFN-gamma. Supernatants from the cells after each stimulation were collected and the cytokines measured by ELISA. […] The lower level of IFN-gamma signal compared to IL-2 was consistently seen in this assay.

[2] = biological target: T1, CTLA-4 (Homo sapiens, UniProt P16410); assay: CTLA-4 Blockade Bioassay (Promega); parameters: host or cells: Jurkat T cells (CTLA-4 effector cells); aAPC/Raji cells; conditions: increasing concentrations
T1 sequence (P16410 36-223): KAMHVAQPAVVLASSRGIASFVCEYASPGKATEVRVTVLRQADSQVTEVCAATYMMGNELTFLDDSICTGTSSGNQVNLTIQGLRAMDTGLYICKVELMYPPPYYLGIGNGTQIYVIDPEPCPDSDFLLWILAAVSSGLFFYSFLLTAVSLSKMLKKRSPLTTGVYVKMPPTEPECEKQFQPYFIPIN
Method: CTLA-4 effector cells were incubated with aAPC/Raji Cells in the absence or presence of increasing concentrations of anti-CTLA-4 antibody (positive control), RLS-0127*, RLS-0130, RLS-0156, RLS-0170 and RLS-0174. Luminescence was detected in luminometer plate reader.
To assess if PIC1 peptides could block CTLA-4 inhibitory activity in a cell-based assay, select peptides were screened in the CTLA-4 Blockade Bioassay (Promega). This bioluminescent cell-based assay is used to measure the potency and stability of molecules targeting CTLA-4 and consists of two genetically engineered cell lines: CTLA-4 effector cells: Jurkat T cells expressing human CTLA-4 and a luciferase reporter driven by a native promoter which responds to TCR/CD28 activation and aAPC/Raji Cells: Raji cells expressing an engineered cell surface protein designed to activate cognate TCRs in an antigen-independent manner and endogenously expressing CTLA-4 ligands CD80 and CD86. When the two cell types are co-cultured, CTLA-4 competes with CD28 for their shared ligands, CD80 and CD86 and thus inhibits CD28 pathway activation and promoter-mediated luminescence. Addition of a molecule that blocks the interaction of CTLA-4 with its ligands CD80 and CD86 results in promoter-mediated luminescence.

[3] = system: human umbilical endothelial vein cells (HUVECs); assay: LPS-induced (non-VEGF mediated) angiogenesis in HUVECs; conditions: peptides 10 mg/ml, LPS 10 ug/ml, overnight
Method: HUVEC cells were incubated with the indicated PIC1 peptides followed by LPS addition and plating onto extracellular matrix. After overnight incubation, evidence of angiogenesis was determined by fluorescence microscopy. Cells receiving LPS and not receiving LPS served as positive and negative controls for angiogenesis.
While VEGF-plays a major role in angiogenesis in cancer, other non-VEGF factors can induce angiogenesis to promote tumor growth. Currently there are no drugs on the market to inhibit non-VEGF mediated angiogenesis. To assess whether the PIC1 peptides could inhibit non-VEGF mediated angiogenesis, the inventors developed a model of angiogenesis using human umbilical endothelial vein cells (HUVECs) in which addition of lipopolysaccharide (LPS) induces angiogenesis. HUVECs were first incubated with Cell Trace Violet dye, followed by addition of PIC1 peptides (10 mg/ml) for 1 hour at 37° C. and then treated with 10 ug/ml of LPS and placement on an extracellular matrix to promote angiogenesis. Cells were incubated overnight at 37° C. in a humidified CO2 incubator. Cells were then visualized for tube formation indicative of angiogenesis by fluorescence microscopy.

[4] = biological target: T2, PD-1/PD-L1 interaction (Homo sapiens, UniProt Q15116+Q9NZQ7); assay: PD-1/PD-L1 Blockade Bioassay (Promega); conditions: increasing peptide concentrations; listed as RLS-0118
T2 construct: host or cells: PD-1 effector cells; PD-L1 aAPC/CHO-K1 cells
T2 sequence (Q15116 25-288): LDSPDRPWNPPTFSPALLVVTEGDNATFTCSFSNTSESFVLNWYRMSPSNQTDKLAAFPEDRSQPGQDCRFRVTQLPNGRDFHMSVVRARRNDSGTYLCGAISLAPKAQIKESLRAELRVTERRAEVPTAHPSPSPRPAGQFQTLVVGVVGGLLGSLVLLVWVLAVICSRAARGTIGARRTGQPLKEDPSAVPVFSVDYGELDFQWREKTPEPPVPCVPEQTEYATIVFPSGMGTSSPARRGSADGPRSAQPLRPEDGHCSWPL
T2 sequence (Q9NZQ7 19-290): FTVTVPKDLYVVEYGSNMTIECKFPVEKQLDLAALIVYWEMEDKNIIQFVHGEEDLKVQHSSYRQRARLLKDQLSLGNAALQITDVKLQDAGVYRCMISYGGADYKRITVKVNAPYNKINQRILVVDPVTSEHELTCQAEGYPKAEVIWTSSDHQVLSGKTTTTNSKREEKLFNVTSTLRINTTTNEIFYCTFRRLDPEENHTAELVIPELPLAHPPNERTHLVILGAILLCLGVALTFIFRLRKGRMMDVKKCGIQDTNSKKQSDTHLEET
Method: PD-1 effector cells were incubated with PD1-L1 aAPC cells in the absence or presence of increasing concentrations of anti-PD-1 antibody (positive control) and select PIC1 peptides. Luminescence was detected in luminometer plate reader.
To assess if PIC1 peptides could block PD-1 inhibitory activity in a cell-based assay, select peptides were screened in the PD-1/PD-L1 Blockade Bioassay (Promega). The PD-1/PD-L1 Blockade Bioassay is a biologically relevant MOA-based assay that can be used to measure the potency and stability of antibodies and other biologics designed to block the PD-1/PD-L1 interaction. This bioluminescent cell-based assay is used to measure the potency and stability of molecules targeting PD-1 and consists of two genetically engineered cell lines: aAPC/CHO-K1 Cells are CHO-K1 cells with an engineered cell surface protein designed to activate cognate TCRs in an antigen-independent manner. When the two cell types are co-cultured, the PD-1/PD-L1 interaction inhibits TCR signaling and NFAT-mediated luciferase activity. Addition of an inhibitory molecule that blocks either PD-1 or PD-L1 releases the inhibitory signal and results in TCR signaling and NFAT-mediated luciferase activity.

With “IALILEP(Sar)S5CQES5AA (IALILEP[Sar][S5]CQE[S5]AA; staple 9-13) [PA-0118]” the “IL-2 signal at stimulation 2” value [1] was “did not”, the “inhibitory activity in CTLA-4 blockade bioassay (luminescence)” value [2] was “did not” and the “inhibition of LPS-induced angiogenesis (tube formation)” value [3] was “no signs of angiogenesis”. For the same substance, the “inhibition of PD-1/PD-L1 inhibitory signaling (luminescence)” value [4] was “increase in luminescence indicative of inhibition of PD-1/PD-L1 inhibitory signaling; also recorded: able to inhibit PD-1/PD-L1 mediated cell signaling”.
